The values below come from patent US6479487B1, “6, 9-disubstituted 2-[trans-(4-aminocyclohexyl)amino] purines” (Aventis Pharmaceuticals Inc., priority 1998, dated 2002).

Assay [1] relates to A549. Nature of the assay: In vitro tumor cell proliferation, A549. The settings on record: many values given with an undefined *, read-out: In vitro Tumor Cell Proliferation (IC50, μM) Lung A549. Type of assay: cell-based, human. In outline:
(§1)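 Two read-outs were used: sulforhodamine B after 3 + 4 days of drug with re-dosing at medium change, or CyQUANT after 3 days of drug and freezing of plates at −80° C for at least 30 minutes.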

In assay [2] the test system is DMS-114. Nature of the assay: In vitro tumor cell proliferation, DMS-114. Type of assay: cell-based, human. To be noted: many values given with an undefined *, read-out: In vitro Tumor Cell Proliferation (IC50, μM) Lung DMS-114. In outline:
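Human small cell lung carcinoma DMS-114 cells plated overnight, then drug-treated for 3 days, medium and drug renewed, and incubated 4 more days. Growth read by sulforhodamine B staining after TCA fixation; alternatively by CyQUANT after 3 days' drug exposure and freezing at −80 °C.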

The test system of assay [3] is Colo-205. Nature of the assay: In vitro tumor cell proliferation, Colo-205. Type of assay: cell-based. To be noted: values given with an undefined *, read-out: In vitro Tumor Cell Proliferation (IC50, μM) Colon Colo-205. Here is the method:
(§2) The proliferation of tumor cells was measured using a sulforhodamine B assay as described in Skehan, P., et al., J. Natl. Cancer Inst. […] Tumor cells were harvested with trypsin-EDTA, cells that excluded trypan blue were counted, added to 96-well plates and incubated overnight at 37° C. Drug was added to the wells following dilution in culture medium. Three days later, the medium was removed and replenished with medium containing fresh drug and incubated an additional 4 days. The cells were then fixed with 0.1 ml 10% trichloroacetic acid for 60 min at 4° C. The plates were rinsed five times with tap water, air-dried and stained for 30 min with 0.4% sulforhodamine B in 1% acetic acid and air-dried.
(§3) Alternatively, the CyQUANT cell proliferation assay was used to quantitate cell proliferation.
(§4) Alternatively, the CyQUANT cell proliferation assay was used to quantify tumor cell proliferation. Tumor cells were harvested with trypsin-EDTA, cells that excluded trypan blue were counted, added to 96-well plates and incubated overnight at 37° C. Drug was added to the wells following dilution in culture medium. Three days later the medium was removed and the plates frozen at −80° C. for at least 30 minutes.

Assay [4] deals with MDA-MB-231. The assay is described as follows: In vitro tumor cell proliferation, MDA-MB-231. The settings on record: sulforhodamine B or CyQUANT assay, many values given with an undefined *, read-out: In vitro Tumor Cell Proliferation (IC50, μM) Breast MDA-MB-231. Type of assay: cell-based, human. In outline:
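Proliferation quantified by SRB staining of TCA-fixed cells after 3 days of drug plus 4 days with replenished drug, following overnight attachment at 37 °C.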

Assay [5] concerns PC-3. The assay is described as follows: In vitro tumor cell proliferation, PC-3. The format is cell-based, human. To be noted: many values given with an undefined *, read-out: In vitro Tumor Cell Proliferation (IC50, μM) Prostate PC-3. Here is the method:
as §2, §3, §4

Assay [6] concerns the target T1, cdk4/cyclin D1 (Homo sapiens, UniProt P11802).
T1 construct: made in house; host or cells: Sf9 insect cells (Bac-to-Bac baculovirus, pFastBac)
Nature of the assay: Cyclin-dependent Kinase 4 Assay (cdk4/cyclin D1, GST-Rb substrate). The format is biochemical. To be noted: cdk4/cyclin D1 insect cell lysate, 10 μM ATP, 30 min at 37° C., several values = separate determinations, read-out: CDK4 Inhibition IC50. The gist of the method: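 IC50 against cdk4 measured by scintillation counting of bead-bound GST-Rb (0.5 μg) after filtration and four TNEN washes. Reaction was 30 min at 37 °C in HEPES pH 7.5 buffer with 10 mM MgCl2 and 1 mM EGTA. Enzyme source was 0.1 μg Sf9 lysate coinfected with cdk4 and cyclin D1.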

The subject of assay [7] is MDA-MB-435. Nature of the assay: In vitro tumor cell proliferation, MDA-MB-435. Type of assay: cell-based. The settings on record: values given with an undefined *, read-out: In vitro Tumor Cell Proliferation (IC50, μM) Breast MDA-MB-435. The gist of the method: as §1
The target in assay [8] is T2, cdk2/cyclin E (Homo sapiens, UniProt P24941).
T2 construct: made in house; host or cells: insect cells (baculovirus co-infection)
The assay is described as follows: Cyclin-Dependent Kinase 2 Assay (cdk2/cyclin E, GST-Rb substrate). The format is biochemical. To be noted: recombinant cdk2/cyclin E, 10 μM ATP, 30 min at 30° C., several values in a cell = separate determinations, read-out: CDK-2 Inhibition IC50. The method, then:
Substrate: GST-Rb as described above for cdk4/cyclin D1
Assay conditions for cdk2/cyclin E were identical to those for cdk4/cyclin D1 including the substrate. The concentration of recombinant cdk2/cyclin E in the assay was 0.1 μg per 100 μl assay. Incubation was for 30 min at 30° C.

For assay [9], the system named is HT-29. Nature of the assay: In vitro tumor cell proliferation, HT-29. The format is cell-based, human. The settings on record: many values given with an undefined *, read-out: In vitro Tumor Cell Proliferation (IC50, μM) Colon HT-29. The gist of the method:
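Growth was quantified either with CyQUANT, plates frozen at −80° C after 3 days of drug, or by sulforhodamine B staining of TCA-fixed cells after 3 days of drug plus 4 days with fresh drug. Trypan blue-excluding HT-29 cells were plated overnight at 37° C before dosing.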

Assay [10] deals with DU145. The assay is described as follows: In vitro tumor cell proliferation, DU145. The format is cell-based, human. To be noted: many values given with an undefined *, read-out: In vitro Tumor Cell Proliferation (IC50, μM) Prostate DU145. In outline:
as §1

[11] abbreviates: Homo sapiens, COLO 205, Colo-205.
[12] abbreviates: Homo sapiens, MDA-MB-231, MDA-MB-231.
The mark [13] stands for this setting: Homo sapiens, MDA-MB-435, MDA-MB-435.

The pIC50 is the IC50 on a negative log10 scale, so that one unit is a factor of ten.

pIC50: −log10 of the molar value. “And” between values parts separate entries of the source, which are not always exact repeats. Identical values can stand only once. Counter-ions that a name gives are not always drawn. Like-named read-outs stand apart in the source and are kept apart here.

T1 sequence (P11802 whole entry): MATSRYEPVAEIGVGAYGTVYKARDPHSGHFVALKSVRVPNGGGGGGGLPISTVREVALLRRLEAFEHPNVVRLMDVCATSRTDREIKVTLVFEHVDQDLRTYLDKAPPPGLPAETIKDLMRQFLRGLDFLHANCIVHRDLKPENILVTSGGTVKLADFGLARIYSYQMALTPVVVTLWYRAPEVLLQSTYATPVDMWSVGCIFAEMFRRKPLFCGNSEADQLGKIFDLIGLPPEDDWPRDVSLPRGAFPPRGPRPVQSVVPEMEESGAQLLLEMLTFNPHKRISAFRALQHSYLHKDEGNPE
T1 sequence (P24385 whole entry partner): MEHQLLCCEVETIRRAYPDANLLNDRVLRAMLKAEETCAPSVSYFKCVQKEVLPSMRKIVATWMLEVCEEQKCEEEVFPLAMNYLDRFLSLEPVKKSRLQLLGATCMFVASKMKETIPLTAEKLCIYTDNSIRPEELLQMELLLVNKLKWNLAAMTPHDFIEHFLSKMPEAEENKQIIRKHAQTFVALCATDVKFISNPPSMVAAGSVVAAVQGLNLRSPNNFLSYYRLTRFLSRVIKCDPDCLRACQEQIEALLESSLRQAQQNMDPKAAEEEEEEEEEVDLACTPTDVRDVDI

As for `COc1cccc(CCNc2nc(N[C@H]3CC[C@H](N)CC3)nc3c2ncn3C2CCCC2)c1` [Example 27, 2-[Trans-(4-aminocyclohexyl)amino]-6-[2-(3-methoxyphenyl)ethylamino]-9-cyclopentylpurine dihydrochloride], the IC50 in assay [1] (A549, dihydrochloride) is 1.6 µM; in assay [1] (Homo sapiens, A549, A549) it was 3.1 µM; in assay [2] (Homo sapiens, DMS-114, DMS-114), 2.1 µM; in assay [3] (Colo-205, dihydrochloride), 4.6 µM; in assay [3] (setting [11]) it was 4.9 µM; in [4] (setting [12]), 10 µM. For the same molecule, the IC50 in assay [4] (MDA-MB-231, dihydrochloride) was 6 µM; in [5] (Homo sapiens, PC-3, PC-3), 2.6 µM; in [5] (PC-3, dihydrochloride) it was 3 µM; in [7] (setting [13]), 9.3 µM; in [7] (MDA-MB-435, dihydrochloride) it was 7.2 µM; in assay [9] (HT-29, dihydrochloride) it was 5.2 µM. In addition, in assay [9] (Homo sapiens, HT-29, HT-29), the IC50 came out at 3.8 µM. Also, the pIC50 in assay [6] was 5.85; in assay [8] it was 6.89.

For the molecule `N[C@H]1CC[C@H](Nc2nc(NC3CCN(CC4CC4)CC3)c3ncn(C4CCCC4)c3n2)CC1` [Example 52, 2-[Trans-(4-aminocyclohexyl)amino]-6-[4-(1-cyclopropylmethyl)piperidinylamino]-9-cyclopentylpurine], the IC50 in assay [10] (DU145) stood at 1.5 µM; in assay [10] (Homo sapiens, DU-145, DU145), 1.4 µM; in assay [1] (A549), 0.68 µM; in assay [1] (Homo sapiens, A549, A549), 0.57 µM; in [3] (Colo-205), 1.1 µM; in [3] (setting [11]), 1.5 µM. For the same molecule, the IC50 in assay [4] (setting [12]) worked out at 1 µM; in assay [4] (MDA-MB-231), 1.2 µM; in [5] (Homo sapiens, PC-3, PC-3), 1.7 µM; in assay [5] (PC-3), 2.1 µM; in assay [7] (setting [13]), 2.1 µM; in assay [7] (MDA-MB-435) it was 2.4 µM. Also, the IC50 in assay [9] (HT-29) is 2 µM; in [9] (Homo sapiens, HT-29, HT-29), 1.6 µM. For the same molecule, the pIC50 in assay [6] is 6.13 and 5.85 and 5.96; in [8], 6.72.

As to `N[C@H]1CC[C@H](Nc2nc(NC3CCN(Cc4ccccc4Cl)CC3)c3ncn(C4CCCC4)c3n2)CC1` [Example 43, 2-[Trans-(4-aminocyclohexyl)amino]-6-[4-(1-(2-chlorobenzyl))piperidinylamino]-9-cyclopentylpurine], the IC50 stood at 0.32 µM in [10] (DU145); 0.3 µM in [10] (Homo sapiens, DU-145, DU145); 0.23 µM in assay [1] (A549); 0.25 µM in [1] (Homo sapiens, A549, A549); 0.41 µM in assay [2] (DMS-114); 0.43 µM in assay [2] (Homo sapiens, DMS-114, DMS-114). In addition, the IC50 in assay [3] (Colo-205) is 0.23 µM; in assay [3] (setting [11]), 0.28 µM; in assay [4] (setting [12]) it was 0.37 µM; in [4] (MDA-MB-231), 0.43 µM; in [7] (setting [13]), 0.33 µM; in assay [7] (MDA-MB-435) it was 0.57 µM. The pIC50 was 5.41 and 5.11 in [6]; 6.82 and 6.70 in assay [8].

For the molecule `N[C@H]1CC[C@H](Nc2nc(Nc3ccccc3)c3ncn(C4CCCC4)c3n2)CC1` [Example 32, 2-[Trans-(4-aminocyclohexyl)amino]-6-(phenylamino)-9-cyclopentylpurine dihydrochloride], the IC50 is 0.64 µM in assay [10] (DU145, dihydrochloride); 0.39 µM in [10] (Homo sapiens, DU-145, DU145); 0.68 µM in assay [1] (A549, dihydrochloride); 0.37 µM in assay [1] (Homo sapiens, A549, A549); 0.51 µM in assay [2] (DMS-114, dihydrochloride); 0.61 µM in assay [2] (Homo sapiens, DMS-114, DMS-114). Also, the IC50 in assay [3] (Colo-205, dihydrochloride) came out at 1.2 µM; in assay [3] (setting [11]), 0.82 µM; in assay [4] (setting [12]) it was 0.85 µM; in assay [4] (MDA-MB-231, dihydrochloride), 0.68 µM; in assay [7] (setting [13]), 1.59 µM; in assay [7] (MDA-MB-435, dihydrochloride), 1.39 µM. Besides, the IC50 came out at 1.1 µM in [9] (HT-29, dihydrochloride) and 1 µM in [9] (Homo sapiens, HT-29, HT-29). Moreover, the pIC50 in [6] is 5.89 and 5.80; in assay [8], 7.27 and 7.60 and 7.57 and 7.85.

As for `COc1ccc(CNc2nc(N[C@H]3CC[C@H](N)CC3)nc3c2ncn3C(C)C)cc1OC` [Example 19, 2-[Trans-(4-aminocyclohexyl)amino]-6-[(3.4-dimethoxybenzyl)amino]-9-(2-propyl)purine dihydrochloride], the IC50 was determined as 22 µM in assay [1] (Homo sapiens, A549, A549); 15 µM in assay [2] (DMS-114, dihydrochloride); 12 µM in assay [2] (Homo sapiens, DMS-114, DMS-114); 10 µM in assay [3] (Colo-205, dihydrochloride); 12 µM in [3] (setting [11]); 15 µM in [4] (setting [12]). Moreover, the IC50 in assay [7] (setting [13]) came out at 20 µM. Also, the pIC50 was 4.70 in [6] and 6.27 in assay [8].
